System: SEM cells
Experiment: cell viability relative to DMSO control; higher = less cytotoxic
Conditions: 48 h
Outline: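 Leukemia cells (NOMO1 or SEM, 500 cells/well; P12-Ichikawa, 1000 cells/well) were seeded in 5 μl in 1536-well plates after at least four passages of adaptation to each medium. They received library compounds in DMSO by pin dosing, 11 threefold points from 47 μM to 0.79 nM. Luminescence with CellTiter-Glo One was read after 48 h at 37°C. Viability is stated per plate relative to DMSO wells, with cell-free wells as background.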

[1] = HPLM + 10% dialyzed FBS, 0.000781 µM
[2] = HPLM + 10% dialyzed FBS, 0.00234 µM
[3] = HPLM + 10% dialyzed FBS, 0.00702 µM
[4] = HPLM + 10% dialyzed FBS, 0.0211 µM
[5] = HPLM + 10% dialyzed FBS, 0.0632 µM
[6] = HPLM + 10% dialyzed FBS, 0.19 µM
[7] = HPLM + 10% dialyzed FBS, 0.569 µM
[8] = HPLM + 10% dialyzed FBS, 1.71 µM
[9] = HPLM + 10% dialyzed FBS, 5.12 µM
[10] = HPLM + 10% dialyzed FBS, 15.4 µM
[11] = HPLM + 10% dialyzed FBS, 46.1 µM
[12] = RPMI 5 mM glucose + 10% FBS, 0.000781 µM
[13] = RPMI 5 mM glucose + 10% FBS, 0.00234 µM
[14] = RPMI 5 mM glucose + 10% FBS, 0.00702 µM
[15] = RPMI 5 mM glucose + 10% FBS, 0.0211 µM
[16] = RPMI 5 mM glucose + 10% FBS, 0.0632 µM
[17] = RPMI 5 mM glucose + 10% FBS, 0.19 µM
[18] = RPMI 5 mM glucose + 10% FBS, 0.569 µM
[19] = RPMI 5 mM glucose + 10% FBS, 1.71 µM
[20] = RPMI 5 mM glucose + 10% FBS, 5.12 µM
[21] = RPMI 5 mM glucose + 10% FBS, 15.4 µM
[22] = RPMI 5 mM glucose + 10% FBS, 46.1 µM
[23] = RPMI 5 mM glucose + 10% dialyzed FBS, 0.000781 µM
[24] = RPMI 5 mM glucose + 10% dialyzed FBS, 0.00234 µM
[25] = RPMI 5 mM glucose + 10% dialyzed FBS, 0.00702 µM
[26] = RPMI 5 mM glucose + 10% dialyzed FBS, 0.0211 µM
[27] = RPMI 5 mM glucose + 10% dialyzed FBS, 0.0632 µM
[28] = RPMI 5 mM glucose + 10% dialyzed FBS, 0.19 µM
[29] = RPMI 5 mM glucose + 10% dialyzed FBS, 0.569 µM
[30] = RPMI 5 mM glucose + 10% dialyzed FBS, 1.71 µM
[31] = RPMI 5 mM glucose + 10% dialyzed FBS, 5.12 µM
[32] = RPMI 5 mM glucose + 10% dialyzed FBS, 15.4 µM
[33] = RPMI 5 mM glucose + 10% dialyzed FBS, 46.1 µM

Compound: CN1C(=O)\C(=C/C2=C1N=C(NC3CCOCC3)N=C2)OC4=C(F)C=C(F)C=C4
- cell viability [1]: 99.6%
- cell viability [2]: 97.4%
- cell viability [3]: 98.4%
- cell viability [4]: 102%
- cell viability [5]: 99.1%
- cell viability [6]: 90.3%
- cell viability [7]: 93.3%
- cell viability [8]: 92%
- cell viability [9]: 78.9%
- cell viability [10]: 92.7%
- cell viability [11]: 45.6%
- cell viability [12]: 112%
- cell viability [13]: 100%
- cell viability [14]: 125%
- cell viability [15]: 112%
- cell viability [16]: 105%
- cell viability [17]: 112%
- cell viability [18]: 121%
- cell viability [19]: 105%
- cell viability [20]: 97.1%
- cell viability [21]: 115%
- cell viability [22]: 45.6%
- cell viability [23]: 93.3%
- cell viability [24]: 106%
- cell viability [25]: 94.8%
- cell viability [26]: 68.2%
- cell viability [27]: 93.8%
- cell viability [28]: 96.9%
- cell viability [29]: 95.9%
- cell viability [30]: 92%
- cell viability [31]: 96.2%
- cell viability [32]: 88.3%
- cell viability [33]: 42.9%

Compound: CN1CCN(CC1)C/2=N/C3=CC=CC=C3NC4=C2C=C(C)S4
- cell viability [1]: 91%
- cell viability [2]: 105%
- cell viability [3]: 114%
- cell viability [4]: 106%
- cell viability [5]: 102%
- cell viability [6]: 119%
- cell viability [7]: 115%
- cell viability [8]: 114%
- cell viability [9]: 117%
- cell viability [10]: 119%
- cell viability [11]: 105%
- cell viability [12]: 99.3%
- cell viability [13]: 97.4%
- cell viability [14]: 87.4%
- cell viability [15]: 88.6%
- cell viability [16]: 96.2%
- cell viability [17]: 104%
- cell viability [18]: 95.5%
- cell viability [19]: 94.5%
- cell viability [20]: 101%
- cell viability [21]: 94.2%
- cell viability [22]: 88.6%
- cell viability [23]: 95.6%
- cell viability [24]: 99.3%
- cell viability [25]: 105%
- cell viability [26]: 89.4%
- cell viability [27]: 97.1%
- cell viability [28]: 118%
- cell viability [29]: 112%
- cell viability [30]: 110%
- cell viability [31]: 96%
- cell viability [32]: 100%
- cell viability [33]: 93.3%

Compound: CN1CCC(=C2c3ccccc3CCc3sccc32)CC1
- cell viability [1]: 75.4%
- cell viability [2]: 85%
- cell viability [3]: 107%
- cell viability [4]: 94.1%
- cell viability [5]: 101%
- cell viability [6]: 109%
- cell viability [7]: 93.3%
- cell viability [8]: 111%
- cell viability [9]: 102%
- cell viability [10]: 95.8%
- cell viability [11]: 51.1%
- cell viability [12]: 81.8%
- cell viability [13]: 104%
- cell viability [14]: 97.4%
- cell viability [15]: 106%
- cell viability [16]: 96.1%
- cell viability [17]: 113%
- cell viability [18]: 111%
- cell viability [19]: 120%
- cell viability [20]: 97.3%
- cell viability [21]: 117%
- cell viability [22]: 82.1%
- cell viability [23]: 82.5%
- cell viability [24]: 110%
- cell viability [25]: 114%
- cell viability [26]: 99.5%
- cell viability [27]: 104%
- cell viability [28]: 118%
- cell viability [29]: 122%
- cell viability [30]: 111%
- cell viability [31]: 124%
- cell viability [32]: 108%
- cell viability [33]: 68.3%

Compound: COC(=O)[C@@H]1CC2=CC(=O)CC[C@]2(C)[C@@]23O[C@@H]2C[C@@]2(C)[C@@H](CC[C@@]24CCC(=O)O4)[C@H]13
- cell viability [1]: 87.9%
- cell viability [2]: 88.3%
- cell viability [3]: 94.7%
- cell viability [4]: 100%
- cell viability [5]: 96.1%
- cell viability [6]: 121%
- cell viability [7]: 113%
- cell viability [8]: 115%
- cell viability [9]: 115%
- cell viability [10]: 102%
- cell viability [11]: 111%
- cell viability [12]: 105%
- cell viability [13]: 108%
- cell viability [14]: 113%
- cell viability [15]: 98.1%
- cell viability [16]: 116%
- cell viability [17]: 115%
- cell viability [18]: 97.4%
- cell viability [19]: 114%
- cell viability [20]: 122%
- cell viability [21]: 106%
- cell viability [22]: 121%
- cell viability [23]: 87.5%
- cell viability [24]: 93%
- cell viability [25]: 112%
- cell viability [26]: 101%
- cell viability [27]: 113%
- cell viability [28]: 107%
- cell viability [29]: 119%
- cell viability [30]: 116%
- cell viability [31]: 122%
- cell viability [32]: 130%
- cell viability [33]: 125%

Compound: c1cc(N[C@@H]2CCNC2)nc(-c2cnc3ccc(-c4cn[nH]c4)cn23)c1
- cell viability [1]: 105%
- cell viability [2]: 109%
- cell viability [3]: 136%
- cell viability [4]: 134%
- cell viability [5]: 106%
- cell viability [6]: 98.6%
- cell viability [7]: 81.5%
- cell viability [8]: 78.8%
- cell viability [9]: 74%
- cell viability [10]: 76.5%
- cell viability [11]: 67.2%

Compound: Oc1ccc(C2CNCCc3c2cc(O)c(O)c3Cl)cc1 (stereo not drawn)
- cell viability [1]: 98%
- cell viability [2]: 103%
- cell viability [3]: 90%
- cell viability [4]: 91.2%
- cell viability [5]: 91.5%
- cell viability [6]: 104%
- cell viability [7]: 90.8%
- cell viability [8]: 48.5%
- cell viability [9]: 102%
- cell viability [10]: 89.5%
- cell viability [11]: 108%
- cell viability [12]: 83%
- cell viability [13]: 95%
- cell viability [14]: 97.2%
- cell viability [15]: 96.6%
- cell viability [16]: 84.6%
- cell viability [17]: 97.5%
- cell viability [18]: 90.8%
- cell viability [19]: 47.5%
- cell viability [20]: 103%
- cell viability [21]: 91.4%
- cell viability [22]: 94.6%
- cell viability [23]: 81.9%
- cell viability [24]: 93.1%
- cell viability [25]: 86.6%
- cell viability [26]: 96.6%
- cell viability [27]: 76.9%
- cell viability [28]: 112%
- cell viability [29]: 100%
- cell viability [30]: 70.2%
- cell viability [31]: 114%
- cell viability [32]: 101%
- cell viability [33]: 102%

Compound: CCCC[N+]1(C)[C@@H]2CC(OC(=O)[C@H](CO)c3ccccc3)C[C@H]1[C@@H]1O[C@@H]12 (stereo partly drawn)
- cell viability [1]: 112%
- cell viability [2]: 113%
- cell viability [3]: 120%
- cell viability [4]: 125%
- cell viability [5]: 118%
- cell viability [6]: 126%
- cell viability [7]: 110%
- cell viability [8]: 127%
- cell viability [9]: 109%
- cell viability [10]: 131%
- cell viability [11]: 123%

Compound: NC(=O)c1c(OCc2c(F)cc(Br)cc2F)nsc1NC(=O)NCCCCN1CCCC1
- cell viability [1]: 116%
- cell viability [2]: 122%
- cell viability [3]: 111%
- cell viability [4]: 106%
- cell viability [5]: 108%
- cell viability [6]: 131%
- cell viability [7]: 118%
- cell viability [8]: 111%
- cell viability [9]: 84.4%
- cell viability [10]: 39.2%
- cell viability [11]: 35.9%
- cell viability [12]: 91.6%
- cell viability [13]: 100%
- cell viability [14]: 78.7%
- cell viability [15]: 83.2%
- cell viability [16]: 90.5%
- cell viability [17]: 110%
- cell viability [18]: 109%
- cell viability [19]: 103%
- cell viability [20]: 75.4%
- cell viability [21]: 22.4%
- cell viability [22]: 27.9%
- cell viability [23]: 97%
- cell viability [24]: 130%
- cell viability [25]: 97.6%
- cell viability [26]: 116%
- cell viability [27]: 97%
- cell viability [28]: 129%
- cell viability [29]: 123%
- cell viability [30]: 114%
- cell viability [31]: 107%
- cell viability [32]: 37.1%
- cell viability [33]: 63.7%

Compound: O=C(O)CCc1ccc(NCc2cccc(Oc3ccccc3)c2)cc1
- cell viability [1]: 62.4%
- cell viability [2]: 93.7%
- cell viability [3]: 114%
- cell viability [4]: 103%
- cell viability [5]: 112%
- cell viability [6]: 108%
- cell viability [7]: 98.7%
- cell viability [8]: 122%
- cell viability [9]: 121%
- cell viability [10]: 109%
- cell viability [11]: 123%
- cell viability [12]: 74.2%
- cell viability [13]: 106%
- cell viability [14]: 108%
- cell viability [15]: 90.6%
- cell viability [16]: 124%
- cell viability [17]: 105%
- cell viability [18]: 99.3%
- cell viability [19]: 118%
- cell viability [20]: 110%
- cell viability [21]: 120%
- cell viability [22]: 95.2%
- cell viability [23]: 71.6%
- cell viability [24]: 106%
- cell viability [25]: 126%
- cell viability [26]: 116%
- cell viability [27]: 109%
- cell viability [28]: 112%
- cell viability [29]: 121%
- cell viability [30]: 115%
- cell viability [31]: 127%
- cell viability [32]: 131%
- cell viability [33]: 128%
